The source of these data is patent US8269000B2, “Substituted pyrimidine and triazine compounds” (Gruenenthal GmbH, priority 2008, dated 2012).

Assay [1] has as its target T1, rat B1R (Rattus norvegicus, UniProt P97583).
T1 construct: expressed in transfected cells; host or cells: CHO K1 cells
T1 sequence (P97583 1-337): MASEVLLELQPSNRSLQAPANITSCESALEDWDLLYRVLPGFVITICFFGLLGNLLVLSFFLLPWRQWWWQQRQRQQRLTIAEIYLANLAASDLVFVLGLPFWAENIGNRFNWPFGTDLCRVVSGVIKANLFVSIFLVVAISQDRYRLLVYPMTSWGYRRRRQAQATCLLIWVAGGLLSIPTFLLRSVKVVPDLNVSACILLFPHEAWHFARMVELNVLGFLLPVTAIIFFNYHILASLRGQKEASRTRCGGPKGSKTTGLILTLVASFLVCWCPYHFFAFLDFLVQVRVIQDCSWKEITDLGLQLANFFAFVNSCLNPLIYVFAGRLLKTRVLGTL
Description: FLIPR Ca2+ functional study on bradykinin receptor 1 (rB1R CHO K1 cells). Format: cell-based. The note with it: for inhibition at 10 µM: CHO-K1, % inhibition rat B1R at 10 μM, read-out: % inh. (rat B1R) 10 μM; for % inh. (rat B1R) 10 μM: % inhibition rat B1R at 10 μM. The method, boiled down:
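Antagonism was calculated as % of maximal inhibition of the Ca2+ rise triggered by agonist at EC80 (Lys-Des-Arg9-bradykinin for hB1R, Des-Arg9-bradykinin for rB1R), added 10-20 min after test compound (10 μM or serial dilutions for IC50) to Fluo-4-loaded transfected CHO K1 cells on FLIPR. Duplicates or triplicates, ≥2 independent runs.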

Assay [2] addresses T2, human B1R (Homo sapiens, UniProt P46663).
T2 construct: expressed in transfected cells; host or cells: CHO K1 cells
T2 sequence (P46663 1-353): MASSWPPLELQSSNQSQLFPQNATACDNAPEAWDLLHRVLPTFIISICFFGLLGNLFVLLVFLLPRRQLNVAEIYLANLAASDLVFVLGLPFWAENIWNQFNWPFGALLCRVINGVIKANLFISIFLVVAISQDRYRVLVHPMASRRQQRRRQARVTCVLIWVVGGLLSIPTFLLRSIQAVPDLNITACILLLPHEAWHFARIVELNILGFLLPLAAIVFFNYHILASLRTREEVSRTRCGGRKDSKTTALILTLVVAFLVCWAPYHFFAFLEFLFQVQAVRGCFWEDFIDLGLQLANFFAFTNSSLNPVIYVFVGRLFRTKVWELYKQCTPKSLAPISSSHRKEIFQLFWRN
Description: FLIPR Ca2+ functional study on bradykinin receptor 1 (hB1R CHO K1 cells). Format: cell-based. The note with it: % inhibition human B1R at 10 μM, read-out: % inh. (hum. B1R) 10 μM. The protocol: The agonistic or antagonistic activity of substances can be quantified on the bradykinin receptor 1 (B1R) of the species human and rat using ectopically expressing cell lines (CHO K1 cells) and with the aid of a Ca^2+-sensitive dye (Fluo-4) using a fluorescent imaging plate reader (FLIPR). The indication in % activation is based on the Ca^2+ signal after addition of Lys-Des-Arg^9-bradykinin (0.5 nM) or Des-Arg^9-bradykinin (100 nM). Antagonists lead to suppression of the Ca^2+ influx after the addition of the agonist. % Inhibition compared with the maximum achievable inhibition is indicated.
The agonistic or antagonistic activity of substances can be determined on the bradykinin receptor 1 (B1R) of the species human and rat using the following assay. According to this assay, the Ca^2+ influx through the channel is quantified with the aid of a Ca^2+-sensitive dye (Fluo-4 type, Molecular Probes Europe BV, Leiden, Netherlands) using a Fluorescent Imaging Plate Reader (FLIPR, Molecular Devices, Sunnyvale, USA).
Chinese hamster ovary cells (CHO K1 cells) which have been stably transfected with the human B1R gene (hB1R cells) or with the B1R gene of the rat (rB1R cells) are used. For functional studies, the cells are plated out on black 96-well plates having a clear base (BD Biosciences, Heidelberg, Germany or Greiner, Frickenhausen, Germany) in a density of 20,000-35,000 cells/well. The cells are left overnight at 37° C. and with 5% CO2 in culture medium (hB1R cells: Nutrient Mixture Ham's F12, Gibco Invitrogen GmbH, Karlsruhe, Germany or DMEM, Sigma-Aldrich, Taufkirchen, Germany; rB1R cells: D-MEM/F12, Gibco Invitrogen GmbH, Karlsruhe, Germany), with 10 vol.% FBS (fetal bovine serum, Gibco Invitrogen GmbH, Karlsruhe, Germany or PAN Biotech GmbH, Aidenbach, Germany). On the following day, the cells are loaded for 60 minutes at 37° C. with 2.13 μM Fluo-4 (Molecular Probes Europe BV, Leiden, Netherlands) in HBSS buffer (Hank's buffered saline solution, Gibco Invitrogen GmbH, Karlsruhe, Germany) […] (Sigma-Aldrich, Taufkirchen, Germany) and 10 mM HEPES (Sigma-Aldrich, Taufkirchen, Germany). The plates are then washed twice with HBSS buffer, and HBSS buffer additionally containing 0.1% BSA (bovine serum albumin; Sigma-Aldrich, Taufkirchen, Germany), 5.6 mM glucose and 0.05% gelatin (Merck KGaA, Darmstadt, Germany) is added to the plates. After incubation for a further 20 minutes at room temperature, the plates are inserted into the FLIPR for Ca^2+ measurement. Alternatively, washing is carried out with buffer A (15 mM HEPES, 80 mM NaCl, 5 mM KCl, 1.2 mM CaCl2, 0.7 mM MgSO4, 2 g/l glucose, 2.5 mM probenecid) followed by loading with buffer A with added 2.5 μM Fluo-4 and 0.025% Pluronic F127 (Sigma-Aldrich, Taufkirchen, Germany). The cells are then washed twice with buffer A and incubated for 30 minutes at room temperature with buffer A additionally containing 0.05% BSA and 0.05% gelatin and are then inserted into the FLIPR for Ca^2+ measurement. The Ca^2+-dependent fluorescence is measured before and after the addition of substances (λex=488 nm, λem=540 nm). Quantification is carried out by measuring the highest fluorescence intensity (FC, fluorescence counts) over time.
The FLIPR protocol consists of two substance additions. Test substances (10 μM) are first pipetted onto the cells and the Ca^2+ influx is compared with the control (hB1R: Lys-Des-Arg^9-bradykinin>=50 nM; rB1R: Des-Arg^9-bradykinin 10 μM). This gives the activation in %, based on the Ca^2+ signal after addition of Lys-Des-Arg^9-bradykinin (>=50 nM) or Des-Arg^9-bradykinin (10 μM). After 10-20 minutes' incubation, Lys-Des-Arg^9-bradykinin (hB1R) or Des-Arg^9-bradykinin (rB1R) is applied in the concentration of the EC80, and the influx of Ca^2+ is likewise determined. Antagonists lead to suppression of the Ca^2+ influx. The % inhibition compared with the maximum achievable inhibition is calculated. […]

Turning to `COc1cc(C)c(S(=O)(=O)N(C)CCOc2ccnc(N3CCC(CCN4CCCC4)CC3)n2)c(C)c1` [Example H-001, 4-methoxy-N,2,6-trimethyl-N-[2-[[2-[4-(2-1-pyrrolidinylethyl)-1-piperidinyl]-4-pyrimidinyl]oxy]ethyl]benzenesulfonamide], the inhibition at 10 µM in assay [1] stood at 99%; in assay [2] it was 44%.
The like results for `COc1cc(C)c(S(=O)(=O)N(C)CCOc2ccnc(N3CCN(c4ccncc4)CC3)n2)c(C)c1` [Example H-002] were, in that order, 51% and 81%.
Take `COc1cc(C)c(S(=O)(=O)N(C)CCOc2ccnc(N(C)CCN3CCC(c4ccccc4)(N(C)C)CC3)n2)c(C)c1` [Example H-003, N-[2-[[2-[2-(4-dimethylamino-4-phenyl-1-piperidinyl)ethyl-methylamino]-4-pyrimidinyl]oxy]ethyl]-4-methoxy-N,2,6-trimethylbenzenesulfonamide]: the “% inh. (rat B1R) 10 μM” value in assay [1] is given as 71%. The inhibition at 10 µM in assay [2] is 90%.
The corresponding values for `COc1cc(C)c(S(=O)(=O)N2CCCCC2COc2ccnc(N(C)CCN3CCC(c4ccccc4)(N(C)C)CC3)n2)c(C)c1` (stereo not shown) [Example H-004] are 93% and 99%.
Take `COc1cc(C)c(S(=O)(=O)N(CCOc2ccnc(N3CCC(Oc4ccncc4)CC3)n2)C2CC2)c(C)c1` [Example H-005, N-cyclopropyl-4-methoxy-2,6-dimethyl-N-[2-[[2-[4-(4-pyridyloxy)-1-piperidinyl]-4-pyrimidinyl]oxy]ethyl]benzenesulfonamide]: the inhibition at 10 µM was found to be 97% in assay [1] and 98% in assay [2].
For the molecule `Cc1cccc(Cl)c1S(=O)(=O)N(CCOc1ccnc(N2CCC3(CCN(c4ccncc4)CC3)CC2)n1)C1CC1` [Example H-006, 2-chloro-N-cyclopropyl-6-methyl-N-[2-[[2-[9-(4-pyridyl)-3,9-diazaspiro[5.5]undecan-3-yl]-4-pyrimidinyl]oxy]ethyl]benzenesulfonamide], the inhibition at 10 µM in assay [1] turned out to be 92%; in assay [2] it was 64%.
The like results for `COc1cc(C)c(S(=O)(=O)N2CC(Oc3ccnc(N4CCC5(CCN(c6ccncc6)CC5)CC4)n3)C2)c(C)c1` [Example H-007, 3-[4-[[1-(4-methoxy-2,6-dimethylphenyl)sulfonyl-3-azetidinyl]oxy]-2-pyrimidinyl]-9-(4-pyridyl)-3,9-diazaspiro[5.5]undecane] were, in that order, 80% and 11%.
The like results for `COc1cc(C)c(S(=O)(=O)N(CCOc2cc(N3CCC4(CCN(c5ccncc5)CC4)CC3)ncn2)C2CC2)c(C)c1` [Example I-001, N-cyclopropyl-4-methoxy-2,6-dimethyl-N-[2-[[6-[9-(4-pyridyl)-3,9-diazaspiro[5.5]undecan-3-yl]-4-pyrimidinyl]oxy]ethyl]benzenesulfonamide] were, in that order, 88% and 98%.
The like results for `COc1cc(C)c(S(=O)(=O)N(CCN(C)c2cncc(N3CCC4(CCN(c5ccncc5)CC4)CC3)n2)C2CC2)c(C)c1` [Example I-002, N-cyclopropyl-4-methoxy-2,6-dimethyl-N-[2-[methyl-[6-(9-pyridin-4-yl-3,9-diazaspiro[5.5]undecan-3-yl)-pyrazin-2-yl]-amino]-ethyl]-benzenesulfonic acid amide] were, in that order, 109% and 94%.
On to `COc1cc(C)c(S(=O)(=O)N(CCN(C)c2cc(N3CCC4(CCN(c5ccncc5)CC4)CC3)ncn2)C2CC2)c(C)c1` [Example I-003, N-cyclopropyl-4-methoxy-2,6-dimethyl-N-[2-[methyl-[6-(9-pyridin-4-yl-3,9-diazaspiro[5.5]undecan-3-yl)-pyrimidin-4-yl]-amino]-ethyl]-benzenesulfonic acid amide], for which the inhibition at 10 µM in assay [1] turned out to be 108%; in assay [2], 96%.
The like results for `COc1cc(C)c(S(=O)(=O)N(CCN(C)c2ccnc(N3CCC4(CCN(c5ccncc5)CC4)CC3)n2)C2CC2)c(C)c1` [Example I-004, N-cyclopropyl-4-methoxy-2,6-dimethyl-N-[2-[methyl-[2-(9-pyridin-4-yl-3,9-diazaspiro[5.5]undecan-3-yl)-pyrimidin-4-yl]-amino]-ethyl]-benzenesulfonic acid amide] were, in that order, 102% and 85%.
As for `COc1cc(C)c(S(=O)(=O)N(CCN(C)c2nccc(N3CCC4(CCN(c5ccncc5)CC4)CC3)n2)C2CC2)c(C)c1` [Example I-005, N-cyclopropyl-4-methoxy-2,6-dimethyl-N-[2-[methyl-[4-(9-pyridin-4-yl-3,9-diazaspiro[5.5]undecan-3-yl)-pyrimidin-2-yl]-amino]-ethyl]-benzenesulfonic acid amide], the inhibition at 10 µM in assay [1] worked out at 111%; in assay [2], 96%.
The corresponding values for `COc1cc(C)c(S(=O)(=O)N(CCCc2cncc(N3CCC4(CCN(c5ccncc5)CC4)CC3)n2)C2CC2)c(C)c1` [Example I-006, N-cyclopropyl-4-methoxy-2,6-dimethyl-N-[3-[6-(9-pyridin-4-yl-3,9-diazaspiro[5.5]undecan-3-yl)-pyrazin-2-yl]-propyl]-benzenesulfonic acid amide] are 97% and 94%.
The like results for `COc1cc(C)c(S(=O)(=O)N(C)CCOc2nccc(N3CCN(C4CCN(C)CC4)CC3)n2)c(C)c1` [G_CC-001, 4-methoxy-N,2,6-trimethyl-N-[2-[[4-[4-(1-methyl-4-piperidinyl)-1-piperazinyl]-2-pyrimidinyl]oxy]ethyl]benzenesulfonamide] were, in that order, 97% and 98%.
